Results reported in patent US12077503B2, “Substituted cyclic amides and their use as herbicides” (FMC CORPORATION, priority 2015, dated 2024).
Read-outs that look alike come from different tables or passages of the source.

How the values were obtained:
Assay type in all cases: in vivo
[1] = tested on: rice (Oryra sativa); experiment: Test B flooded paddy test; details: Oryza sativa, Flood, 250 g ai/ha, read-out: Rice plant response rating
Method in brief: (§1)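 Plants at 2-leaf stage flooded to 3 cm above soil, with compounds applied directly to paddy water and that depth maintained. Plants kept in greenhouse 13–15 d. Visual rating versus controls on a 0 (no effect) to 100 (complete control) scale.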

[2] = tested on: sedge, umbrella (small-flower umbrella sedge, Cyperus difformis); experiment: Test B flooded paddy test; details: Cyperus difformis, Flood, 250 g ai/ha
Method in brief: as §1

[3] = tested on: barnyardgrass (Echinochloa crus-galli); experiment: Test B flooded paddy test; details: Echinochloa crus-galli, Flood, 250 g ai/ha, read-out: Barnyardgrass plant response rating
Method in brief: as §1

[4] = tested on: ducksalad (Heteranthera limosa); experiment: Test B flooded paddy test; details: Heteranthera limosa, Flood, 250 g ai/ha, read-out: Ducksalad plant response rating
Method in brief: as §1

[5] = tested on: ryegrass, Italian (Italian ryegrass, Lolium multiflorum); experiment: Test A postemergence; details: Lolium multiflorum, post-emergence, 240 h, Postemergence; for pest or weed control at 125 g/ha: 125 g ai/ha
Method in brief: (§2)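 In a loam soil and sand blend, planted seeds got a preemergence directed soil spray, and young plants at the one- to two-leaf stage, 2–10 cm high, got a postemergence application; ~10 d greenhouse hold; injury rated visually, 0 = none, 100 = complete control.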

[6] = tested on: giant foxtail (Setaria faberii); experiment: Test A postemergence; details: Setaria faberi, post-emergence, 240 h, Postemergence; for pest or weed control at 125 g/ha: 125 g ai/ha
Method in brief: as §2

[7] = tested on: pigweed (Amaranthus retroflexus); experiment: Test A postemergence; details: Amaranthus retroflexus, post-emergence, 240 h, Postemergence; for pest or weed control at 125 g/ha: 125 g ai/ha
Method in brief: as §2

[8] = tested on: wheat (Triticum aestivum); experiment: Test A postemergence; details: Triticum aestivum, post-emergence, 240 h, Postemergence; for plant injury at 125 g/ha: 125 g ai/ha
Method in brief: as §2

[9] = tested on: blackgrass (Alopecurus myosuroides); experiment: Test A postemergence; details: Alopecurus myosuroides, post-emergence, 240 h, Postemergence; for pest or weed control at 125 g/ha: 125 g ai/ha
Method in brief: as §2

[10] = tested on: ragweed (common ragweed, Ambrosia elatior); experiment: Test A preemergence; details: Ambrosia artemisiifolia, pre-emergence, 240 h; for pest or weed control at 125 g/ha: 125 g ai/ha; for pest or weed control at 500 g/ha: 500 g ai/ha
Method in brief: as §2

[11] = tested on: ryegrass, Italian (Italian ryegrass, Lolium multiflorum); experiment: Test A preemergence; details: Lolium multiflorum, pre-emergence, 240 h; for pest or weed control at 125 g/ha: 125 g ai/ha
Method in brief: as §2

[12] = tested on: giant foxtail (Setaria faberii); experiment: Test A preemergence; details: Setaria faberi, pre-emergence, 240 h; for pest or weed control at 125 g/ha: 125 g ai/ha; for pest or weed control at 500 g/ha: 500 g ai/ha
Method in brief: as §2

[13] = tested on: pigweed (Amaranthus retroflexus); experiment: Test A preemergence; details: Amaranthus retroflexus, pre-emergence, 240 h; for pest or weed control at 125 g/ha: 125 g ai/ha; for pest or weed control at 500 g/ha: 500 g ai/ha
[14] = tested on: barnyardgrass (Echinochloa crus-galli); experiment: Test A preemergence; details: Echinochloa crus-galli, pre-emergence, 240 h; for pest or weed control at 125 g/ha: 125 g ai/ha; for pest or weed control at 500 g/ha: 500 g ai/ha
Method in brief: as §2

[15] = tested on: Kochia (Kochia scoparia); experiment: Test A preemergence; details: Bassia scoparia, pre-emergence, 240 h; for pest or weed control at 125 g/ha: 125 g ai/ha; for pest or weed control at 500 g/ha: 500 g ai/ha
Method in brief: as §2

[16] = scale of 0 to 100 where 0 is no effect and 100 is complete control
[17] = preemergence, 0 to 100 scale where 0 is no effect and 100 is complete control, read-out: Ragweed plant response rating
[18] = preemergence, 0 to 100 scale where 0 is no effect and 100 is complete control, read-out: Foxtail, Giant plant response rating
[19] = preemergence, 0 to 100 scale where 0 is no effect and 100 is complete control, read-out: Pigweed plant response rating
[20] = preemergence, 0 to 100 scale where 0 is no effect and 100 is complete control, read-out: Barnyardgrass plant response rating
[21] = preemergence, 0 to 100 scale where 0 is no effect and 100 is complete control, read-out: Kochia plant response rating
[22] = 0 to 100 scale where 0 is no effect and 100 is complete control

COc1c(F)ccc([C@H]2CNC(=O)[C@@H]2C(=O)Nc2ccccc2S(C)(=O)=O)c1Cl [Compound 916]
pest or weed control at 250 g/ha [1, 16]: 0% | pest or weed control at 250 g/ha ([2]; scale of 0 to 100 where 0 is no effect and 100 is complete control, read-out: Sedge, Umbrella plant response rating): 0% | pest or weed control at 250 g/ha [3, 16]: 0% | pest or weed control at 250 g/ha [4, 16]: 100% | pest or weed control at 125 g/ha ([5]; visual injury after approximately 10 d, 0 to 100 scale where 0 is no effect and 100 is complete control, read-out: Plant response rating, Ryegrass, Italian): 0% | pest or weed control at 125 g/ha ([6]; visual injury after approximately 10 d, 0 to 100 scale where 0 is no effect and 100 is complete control, read-out: Plant response rating, Foxtail, Giant): 0% | pest or weed control at 125 g/ha ([7]; visual injury after approximately 10 d, 0 to 100 scale where 0 is no effect and 100 is complete control, read-out: Plant response rating, Pigweed): 0% | plant injury at 125 g/ha ([8]; visual injury after approximately 10 d, 0 to 100 scale where 0 is no effect and 100 is complete control, read-out: Plant response rating, Wheat): 0% | pest or weed control at 125 g/ha ([9]; visual injury after approximately 10 d, 0 to 100 scale where 0 is no effect and 100 is complete control, read-out: Plant response rating, Blackgrass): 0% | pest or weed control at 125 g/ha [10, 17]: 0% | pest or weed control at 500 g/ha ([10]; Preemergence, visual injury vs untreated controls after approximately 10 d, read-out: Ragweed plant response rating (0 to 100 scale where 0 is no effect and 100 is complete control)): 70% | pest or weed control at 125 g/ha ([11]; preemergence, 0 to 100 scale where 0 is no effect and 100 is complete control, read-out: Ryegrass, Italian plant response rating): 0% | pest or weed control at 500 g/ha ([11]; 500 g ai/ha, Preemergence, visual injury vs untreated controls after approximately 10 d, read-out: Ryegrass, Italian plant response rating (0 to 100 scale where 0 is no effect and 100 is complete control)): 30% | pest or weed control at 125 g/ha [12, 18]: 70% | pest or weed control at 500 g/ha ([12]; Preemergence, visual injury vs untreated controls after approximately 10 d, read-out: Foxtail, Giant plant response rating (0 to 100 scale where 0 is no effect and 100 is complete control)): 80% | pest or weed control at 125 g/ha [13, 19]: 0% | pest or weed control at 500 g/ha ([13]; Preemergence, visual injury vs untreated controls after approximately 10 d, read-out: Pigweed plant response rating (0 to 100 scale where 0 is no effect and 100 is complete control)): 20% | pest or weed control at 125 g/ha [14, 20]: 30% | pest or weed control at 500 g/ha ([14]; Preemergence, visual injury vs untreated controls after approximately 10 d, read-out: Barnyardgrass plant response rating (0 to 100 scale where 0 is no effect and 100 is complete control)): 80% | pest or weed control at 125 g/ha [15, 21]: 40% | pest or weed control at 500 g/ha ([15]; Preemergence, visual injury vs untreated controls after approximately 10 d, read-out: Kochia plant response rating (0 to 100 scale where 0 is no effect and 100 is complete control)): 60%

CSc1ccccc1NC(=O)[C@H]1C(=O)N(C)C[C@@H]1c1ccc(F)c(C)c1 [Compound 1312]
pest or weed control at 250 g/ha [1, 22]: 0% | pest or weed control at 250 g/ha ([2]; 360 h, visually evaluated after 13 to 15 d, read-out: Plant response rating, Sedge, Umbrella (0 to 100 scale where 0 is no effect and 100 is complete control)): 0% | pest or weed control at 250 g/ha [3, 22]: 40% | pest or weed control at 250 g/ha [4, 22]: 100% | pest or weed control at 125 g/ha ([5]; visual rating about 10 d after treatment, read-out: Ryegrass, Italian plant response rating (0 to 100 scale)): 30% | pest or weed control at 500 g/ha ([5]; 500 g ai/ha, visual injury, 0 to 100 scale (0 no effect, 100 complete control), approx. 10 d, read-out: Plant response rating, Ryegrass, Italian): 50% | pest or weed control at 125 g/ha ([6]; visual rating about 10 d after treatment, read-out: Foxtail, Giant plant response rating (0 to 100 scale)): 90% | pest or weed control at 500 g/ha ([6]; 500 g ai/ha, visual injury, 0 to 100 scale (0 no effect, 100 complete control), approx. 10 d, read-out: Plant response rating, Foxtail, Giant): 90% | pest or weed control at 125 g/ha ([7]; visual rating about 10 d after treatment, read-out: Pigweed plant response rating (0 to 100 scale)): 0% | pest or weed control at 500 g/ha ([7]; 500 g ai/ha, visual injury, 0 to 100 scale (0 no effect, 100 complete control), approx. 10 d, read-out: Plant response rating, Pigweed): 40% | plant injury at 125 g/ha ([8]; visual rating about 10 d after treatment, read-out: Wheat plant response rating (0 to 100 scale)): 30% | plant injury at 500 g/ha ([8]; 500 g ai/ha, visual injury, 0 to 100 scale (0 no effect, 100 complete control), approx. 10 d, read-out: Plant response rating, Wheat): 80% | pest or weed control at 125 g/ha ([9]; visual rating about 10 d after treatment, read-out: Blackgrass plant response rating (0 to 100 scale)): 50% | pest or weed control at 500 g/ha ([9]; 500 g ai/ha, visual injury, 0 to 100 scale (0 no effect, 100 complete control), approx. 10 d, read-out: Plant response rating, Blackgrass): 70% | pest or weed control at 500 g/ha [10, 17]: 100% | pest or weed control at 125 g/ha ([10]; Preemergence, 0 to 100 scale (0 no effect, 100 complete control), read-out: Plant response rating, Ragweed): 70% | pest or weed control at 125 g/ha ([11]; Preemergence, 0 to 100 scale (0 no effect, 100 complete control), read-out: Plant response rating, Ryegrass, Italian): 60% | pest or weed control at 500 g/ha [12, 18]: 100% | pest or weed control at 125 g/ha ([12]; Preemergence, 0 to 100 scale (0 no effect, 100 complete control), read-out: Plant response rating, Foxtail, Giant): 90% | pest or weed control at 500 g/ha [13, 19]: 60% | pest or weed control at 125 g/ha ([13]; Preemergence, 0 to 100 scale (0 no effect, 100 complete control), read-out: Plant response rating, Pigweed): 20% | pest or weed control at 500 g/ha [14, 20]: 100% | pest or weed control at 125 g/ha ([14]; Preemergence, 0 to 100 scale (0 no effect, 100 complete control), read-out: Plant response rating, Barnyardgrass): 90% | pest or weed control at 500 g/ha [15, 21]: 80% | pest or weed control at 125 g/ha ([15]; Preemergence, 0 to 100 scale (0 no effect, 100 complete control), read-out: Plant response rating, Kochia): 50%
